Read-outs that look alike come from different tables or passages of the source.
Test system: rgRSV224 virus
Assay: Antiviral activity: inhibition of rgRSV224 (GFP-expressing RSV) replication in HeLa cells
Assay type: cell-based, respiratory syncytial virus
Settings: for EC50: human respiratory syncytial virus, HeLa, 72 h
Protocol: Black 96-well clear-bottom microtiter plates (Corning, Amsterdam, The Netherlands) were filled in duplicate using a customized robot system with serial 4-fold dilutions of compound in a final volume of 50 μl culture medium [RPMI medium without phenol red, 10% FBS, 0.04% gentamycin (50 mg/ml) and 0.5% DMSO]. Then, 100 μl of a HeLa cell suspension (5×10^4 cells/ml) in culture medium was added to each well followed by the addition of 50 μl rgRSV224 (MOI=0.02) virus in culture medium using a multidrop dispenser (Thermo Scientific, Erembodegem, Belgium). rgRSV224 virus is an engineered virus that includes an additional GFP gene (Hallak et al, 2000) and was in-licensed from the NIH (Bethesda, Md., USA). Medium, virus- and mock-infected controls were included in each test. Cells were incubated at 37° C. in a 5% CO2 atmosphere. Three days post-virus exposure, viral replication was quantified by measuring GFP expression in the cells by a MSM laser microscope (Tibotec, Beerse, Belgium). The EC50 was defined as the 50% inhibitory concentration for GFP expression. In parallel, compounds were incubated for three days in a set of white 96-well microtitier plates (Corning) and the cytotoxicity of compounds in HeLa cells was determined by measuring the ATP content of the cells using the ATPlite kit (PerkinElmer, Zaventem, Belgium) according to the manufacturer's instructions. The CC50 was defined as the 50% concentration for cytotoxicity. SI is calculated as CC50/EC50.

[1] = read-out: pEC50, rgRSV224 (MOI=0.02) in HeLa cells, GFP expression three days post-virus exposure (converted)
[2] = read-out: RSV-wt_pEC50, rgRSV224 (MOI=0.02) in HeLa cells, GFP expression three days post-virus exposure

Structure (SMILES)	EC50 [1]	EC50 [2]	other results
CC(C)(C)OC(=O)N1CCC2(CC1)C(=O)N(Cc1cc3nc(Cl)ccc3n1CCCCF)c1cnccc12 [Compound 69, tert-butyl 1′-((5-chloro-1-(4-fluorobutyl)-1H-pyrrolo[3,2-b]-pyridin-2-yl)methy)-2′-oxo-1′,2′-dihydrospiro[piperidine-4,3′-pyrrolo[2,3-c]pyridine]-1-carboxylate]	5.01 nM	–	–
CS(=O)(=O)CCCn1c(CN2C(=O)C3(CCOCC3)c3cnccc32)nc2cc(Cl)ccc21 [Compound 41, 1-((5-chloro-1-(3-(methylsulfonyl)propyl)-1H-benzo[d]-imidazol-2-yl)methyl)-2,3,5,6-tetrahydrospiro[pyran-4,3′-pyrrolo[3,2-c]pyridin]-2′(1′H)-one]	45.7 nM	–	–
O=C1CC2(C1)C(=O)N(Cc1nc3cc(Cl)ccc3n1CCCCF)c1ccccc12 [Compound 158, 1-{[5-Chloro-1-(4-fluorobutyl)-1H-benzimidazol-2-yl]methyl}-3H-spiro[cyclobutane-1,3′-indole]-2′,3(1′H)-dione]	–	0.575 nM	–
NS(=O)(=O)N1CCC2(CC1)C(=O)N(Cc1cc3cc(Cl)ccc3n1CCCCF)c1cnccc12 [Compound 111, 1′-{[5-Chloro-1-(4-fluorobutyl)-1H-indol-2-yl]methyl}-2′-oxo-1′,2′-dihydro-1H-spiro[piperidine-4,3′-pyrrolo[2,3-c]-pyridine]-1-sulfonamide]	–	0.123 nM	–
CS(=O)(=O)CCCn1c(CN2C(=O)C3(CN(c4cccnc4)C3)c3ccccc32)nc2cc(Cl)ccc21 [Compound 7, 1′-({5-chloro-1-[3-(methylsulfonyl)propyl]-1H-benzimidazol-2-yl}methyl)-1-(pyridin-3-yl)spiro[azetidine-3,3′-indol]-2′(1′H)-one]	0.0251 nM	–	–
CC(C)(O)C(=O)N1CC2(C1)C(=O)N(Cc1nc3cc(Cl)ccc3n1CCCCO)c1ccccc12 [Compound 175, 1′-{[5-Chloro-1-(4-hydroxybutyl)-1H-benzimidazol-2-yl]methyl}-1-(2-hydroxy-2-methylpropanoyl)spiro[azetidine-3,3′-indol]-2′(1′H)-one]	–	0.0741 nM	–
CNC(=O)O[C@H]1C[C@@]2(C1)C(=O)N(Cc1cc3cc(Cl)ccc3n1CCCCF)c1ccccc12 [Compound 120, (1r,3r)-1′-((5-chloro-1-(4-fluorobutyl)-1H-indol-2-yl)methyl)-2′-oxospiro[cyclobutane-1,3′-indolin]-3-yl methylcarbamate]	–	2.4 nM	–
N#CCCCn1c(CN2c3ccccc3[C@]3(C[C@H](NC(=O)OC4CC4)C3)C2=O)nc2cc(Cl)ccc21 [Compound 125, cyclopropyl ((1s,3s)-1′-((5-chloro-1-(3-cyanopropyl)-1H-benzo[d]imidazol-2-yl)methyl)-2′-oxospiro[cyclobutane-1,3′-indolin]-3-yl)carbamate]	–	0.288 nM	–
N#CCCCn1c(CN2c3ccccc3[C@]3(C[C@@H](N)C3)C2=O)nc2cc(Cl)ccc21 [Compound 148, 4-(2-(((1r,3r)-3-amino-2′-oxospiro[cyclobutane-1,3′-indolin]-1′-yl)methyl)-5-chloro-1H-benzo[d]imidazol-1-yl)butanenitrile]	–	4.68 nM	–
O=C(NS(=O)(=O)N1CCC2(CC1)C(=O)N(Cc1cc3cc(Cl)ccc3n1CCCCF)c1cnccc12)C1CC1 [Compound 184, N-[(1′-{[5-Chloro-1-(4-fluorobutyl)-1H-indol-2-yl]methyl}-2′-oxo-1′,2′-dihydro-1H-spiro[piperidine-4,3′-pyrrolo[2,3-c]pyridin]-1-yl)sulfonyl]cyclopropanecarboxamide]	–	0.219 nM	–
CCOP(=O)(OCC)N1CCC2(CC1)C(=O)N(Cc1nc3cc(Cl)ccc3n1CCCC#N)c1cnccc12 [Compound 115, Diethyl (1′-{[5-chloro-1-(3-cyanopropyl)-1H-benzimidazol-2-yl]methyl}-2′-oxo-1′,2′-dihydro-1H-spiro[piperidine-4,3′-pyrrolo[2,3-c]pyridin]-1-yl)phosphonate]	–	–	EC50 (read-out: RSV-wt_pEC50): 0.0692 nM
O=C1N(Cc2nc3nc(Cl)ccc3n2CCCC(F)(F)F)c2cnccc2C12CCOCC2 [Compound 67, 1′-((5-chloro-1-(4,4,4-trifluorobutyl)-1H-imidazo[4,5-b]-pyridin-2-yl)methyl)-2,3,5,6-tetrahydrospiro[pyran-4,3′-pyrrolo[2,3-c]pyridin]-2′(1′H)-one]	–	–	pEC50 (rgRSV224 (MOI=0.02) in HeLa cells, GFP expression three days post-virus exposure): 10.3
CS(=O)(=O)CCCn1c(CN2C(=O)C3(CCOCC3)c3cc(F)ccc32)nc2cc(Cl)ccc21 [Compound 19]	3.98 nM	–	–
CC(C)(C)OC(=O)N1CCC2(CC1)C(=O)N(Cc1c(C(N)=O)c3cc(Cl)ccc3n1CCCCF)c1cnccc12 [Compound 156, tert-Butyl 1′-{[3-carbamoyl-5-chloro-1-(4-fluorobutyl)-1H-indol-2-yl]methyl}-2′-oxo-1′,2′-dihydro-1H-spiro[piperidine-4,3′-pyrrolo[2,3-c]pyridine]-1-carboxylate]	–	0.0676 nM	–
N#CCCCn1c(CN2C(=O)C3(CN(S(=O)(=O)c4ccc(F)cc4)C3)c3ccccc32)nc2cc(Cl)ccc21 [Compound 93, 4-[5-Chroro-2-({1-[(4-fluorophenyl)sulfonyl]-2′-oxospiro-[azetidine-3,3′-indol]-1′(2′H)-yl}methyl)-1H-benzimidazol-1-yl]butanenitrile]	–	1.62 nM	–
N#CCCCn1c(CN2C(=O)C3(CCN(S(N)(=O)=O)CC3)c3ccncc32)nc2cc(Cl)ccc21 [Compound 89, 1′-((5-chloro-1-(3-cyanopropyl)-1H-benzo[d]imidazol-2-yl)-methyl)-2′-oxo-1′,2′-dihydrospiro[piperidine-4,3′-pyrrolo-[2,3-c]pyridine]-1-sulfonamide]	0.0794 nM	–	–
N#CCCCn1c(CN2C(=O)C3(CN(C(=O)[C@H](O)CO)C3)c3ccccc32)cc2cc(Cl)ccc21 [Compound 131, (R)-4-(5-chloro-2-((1-(2,3-dihydroxypropanoyl)-2′-oxospiro[azetidine-3,3′-indolin]-1′-yl)methyl)-1H-indol-1-yl)butanenitrile]	–	0.427 nM	–
CS(=O)(=O)CCCn1c(CN2C(=O)C3(CCN(c4ccc(Cl)nn4)CC3)c3cc(Br)ccc32)nc2cc(Cl)ccc21 [Compound 20, 5-bromo-1-((5-chloro-1-(3-(methylsulfonyl)propyl)-1H-benzo[d]imidazol-2-yl)methyl)-1′-(6-chloropyridazin-3-yl)spiro[indoline-3,4′-piperidin]-2-one]	3.98 nM	–	–
O=C1N(Cc2nc3cc(Cl)ccc3n2CCCC(F)(F)F)c2ccccc2C12CCN(Cc1ccccc1)CC2 [Compound 51, 1′-benzyl-1-((5-chloro-1-(4,4,4-trifluorobutyl)-1H-benzo[d]-imidazol-2-yl)methyl)spiro[indoline-3,4′-piperidin]-2-one]	63.1 nM	–	–
CC(=O)N1CCC2(CC1)C(=O)N(Cc1nc3cc(Cl)ccc3n1CCCS(C)(=O)=O)c1ccc(Cl)cc12 [Compound 24, 1-acetyl-5-chloro-1-((5-chloro-1-(3-(methylsulfonyl)-propyl)-1H-benzo[d]imidazol-2-yl)methyl)spiro[indoline-3,4′-piperidin]-2-one]	7.94 nM	–	–
N#CCCCn1c(CN2C(=O)C3(CCN(C(=O)OC4CC4)CC3)c3ccncc32)cc2cc(Cl)ccc21 [Compound 132, Cyclopropyl 1′-{[5-chloro-1-(3-cyanopropyl)-1H-indol-2-yl]methyl}-2′-oxo-1′,2′-dihydro-1H-spiro[piperidine-4,3′-pyrrolo[2,3-c]pyridine]-1-carboxylate]	–	0.0646 nM	–
CC1CC2(CC(C)O1)C(=O)N(Cc1nc3cc(Cl)ccc3n1CCCS(C)(=O)=O)c1cnccc12 (stereo not shown) [Compound 174, 1′-({5-Chloro-1-[3-(methylsulfonyl)propyl]-1H-benzimidazol-2-yl}methyl)-2,6-dimethyl-2,3,5,6-tetrahydrospiro[pyran-4,3′-pyrrolo[2,3-c]pyridin]-2′(1′H)-one]	–	17.8 nM	–
CC(C)(O)C(=O)N1CCC2(CC1)C(=O)N(Cc1cc3cc(Cl)ccc3n1CCCC#N)c1cnccc12 [Compound 86, 4-(5-chloro-2-((1-(2-hydroxy-2-methylpropanoyl)-2′-oxospiro[piperidine-4,3′-pyrrolo[2,3-c]pyridin]-1′(2′H)-yl)methyl)-1H-indol-1-yl)butanenitrile]	< 0.158 nM	–	–
N#CCCCn1c(CN2C(=O)C3(CN(C(=O)C(O)CO)C3)c3ccccc32)cc2cc(Cl)ccc21 (stereo not shown) [Compound 165, 4-(5-chloro-2-((1-(2,3-dihydroxypropanoyl)-2′-oxospiro[azetidine-3,3′-indolin]-1′-yl)methyl)-1H-indol-1-yl)butanenitrile]	–	0.145 nM	–
COC(=O)N1CC2(C1)C(=O)N(Cc1cc3cc(Cl)ccc3n1CCCC#N)c1ccccc12 [Compound 60, 1′-{[5-chloro-1-(3-cyanopropyl)-1H-indol-2-yl]methyl}-2′-oxo-1′,2′-dihydro-1H-spiro[azetidine-3,3′-indole]-1-carboxylate]	0.251 nM	–	–

From patent publication US9617289B2, “RSV antiviral compounds” (JANSSEN R&D IRELAND, priority 2012, dated 2017)
